The values below come from PMC3556473, “Absorption, metabolism and excretion of [^14C]pomalidomide in humans following oral administration” (Cancer Chemotherapy and Pharmacology, 2012).

Data set [1] can be described thus: Plasma pharmacokinetics of pomalidomide and circulating metabolites by radiochromatography (metabolite profiling). The class given is in vivo, human. On the set-up: AUC0–24 / AUC0−∞: concentration or dose not given beside the values. The following applies: for Plasma (% AUC relative to TRA): AUC0–24 (unchanged drug or metabolite)/AUC0–24 (TRA) * 100 %; for Tmax / half-life: human, oral, 2 mg; for Tmax: median and range; for half-life: male, read-out: t ½ (converted); for AUC/AUCTRA: plasma exposure relative to total radioactivity. The procedure:
Individual plasma samples collected from all subjects at 1, 2.5, 4, 6, 10, 12 and 24 h post-dose were analyzed for metabolite profiling. Samples were extracted with acetonitrile, the supernatant was removed, and the pellet was washed with 0.1 % formic acid in water and extracted again with acetonitrile. The combined supernatants were adjusted to 15 or 25 mL by adding acetonitrile then evaporated to dryness under a stream of nitrogen. The residues were re-suspended in 0.1 % formic acid in water, assayed for extraction recovery and analyzed for metabolite profiling. A control plasma sample spiked with [^14C]pomalidomide was extracted in a similar manner to determine the extraction efficiency and stability of [^14C]pomalidomide.
HPLC analysis for metabolite profiling (HPLC Method 1) was performed using a Waters 2695 Alliance Separation Module (Waters Corp., Milford, MA) with the autosampler set to 4 °C. [^14C]Pomalidomide and metabolites were separated using an ACE C18 column (150 × 4.6 mm, 3 μm; Advanced Chromatography Technologies, Aberdeen, Scotland) equipped with an ACE C18 guard column (10 × 3 mm, 3 μm). The mobile phases used were 25 mM ammonium acetate in water: pH 5.5 with formic acid (mobile phase A) and methanol (mobile phase B). The column temperature was 30 °C, and the flow rate was 0.7 mL/min. The linear gradient was delivered as follows: 0–2 min 100 % A; 2–38 min to 64 % A; 38–44 min to 0 % A; 44–48 min hold at 0 % A; return to initial conditions over 2 min.
Radioactivity profiles for plasma and excreta were determined by collecting the column eluate into 96-well Deepwell LumaPlates™ at a rate of 0.25 min/fraction. The plates were dried and the radioactivity in each well determined using a PerkinElmer TopCount® NXT™ Microplate Scintillation Counter. HPLC radiochromatograms were reconstructed using LC-ARC data handling software.
For pomalidomide and metabolite concentrations in plasma based on metabolite profiling data, pharmacokinetic data were generated by non-compartmental analysis of plasma versus time profiles using WinNonlin (version 4.1, Enterprise Edition).

The target of another data set is T1, CYP2C19 (Homo sapiens, UniProt P33261).
T1 construct: purchased Cypex Ltd (Scotland, UK)
Put plainly: In vitro CYP phenotyping (M17 formation from [14C]pomalidomide). The class given is in vitro ADME. The procedure:
The CYP enzymes responsible for the formation of the hydroxy pomalidomide metabolites were investigated using 10 recombinant human CYP (rCYP) enzymes (CYP1A2, CYP2A6, CYP2B6, CYP2C8, CYP2C9, CYP2C19, CYP2D6, CYP2E1, CYP3A4 and CYP3A5) at 100 pmol/mL. Incubations were prepared using [^14C]pomalidomide (1 μM) in 0.1 M potassium phosphate buffer (pH 7.4) with 4 mM MgCl2, pre-incubated for 5 min at 37 °C. Reactions were initiated by the addition of 1 mM NADPH and continued for 30 or 60 min. Reactions were quenched with two volumes of ice-cold 0.1 % formic acid in acetonitrile containing [^13C5]pomalidomide as internal standard. The samples were mixed and centrifuged, and a subsample of the supernatant evaporated to dryness. The resulting pellet was reconstituted in 0.1 % formic acid in water and acetonitrile (4:1, v/v) and analyzed using HPLC with radiochromatography and/or LC–MS/MS. The rate of formation of the notable human metabolite M17 was calculated and scaled to human in vivo situation using relative abundance method.

The subject of another data set is H929 MM cell. Put plainly: Inhibition of MM cell proliferation ([3H]-thymidine incorporation, 3-day culture). The following applies: Homo sapiens, NCI-H929. The class given is cell-based. The procedure: (§1) Metabolites and hydrolysis products of pomalidomide were tested for pharmacological activity in the following three assay systems: (1) inhibition of MM cell proliferation, (2) enhancement of primary human T cell IL-2 production and (3) inhibition of TNF-α production by lipopolysaccharide (LPS)-stimulated human peripheral blood mononuclear cells (PBMC). For all three assay types, compounds were dissolved in 100 % dimethyl sulfoxide (DMSO) and diluted into complete cell culture medium, consisting of Roswell Park Memorial Institute (RPMI)-1640 plus penicillin, streptomycin and L-glutamine (Mediatech, Manassas, VA). The MM cell proliferation cell culture medium contained 10 % fetal bovine serum, while the primary human cell cultures contained 10 % human AB serum (Invitrogen, Brown Deer, WI). The final DMSO concentration in the cell culture media was 0.25 %.
(§2) The human MM cell line OPM-2 was obtained from DSMZ (Braunschweig, Germany), and human MM cell lines U266 B1 and NCI-H929 were obtained from ATCC (Manassas, VA). Inhibition of MM cell proliferation was assessed by the [^3H]-thymidine incorporation assay in a 3-day culture in the presence of compounds in complete medium, as previously described. Primary human T cells were isolated from PBMC by negative selection using the RosetteSep T Cell Enrichment Cocktail (STEMCELL Technologies, Tukwila, WA) according to the manufacturer’s procedures. Costimulation of T cell IL-2 production was measured in a 2-day culture of primary human T cells isolated from healthy donors stimulated with anti-CD3 antibody in the presence of compounds, as previously described. Inhibition of TNF-α production by LPS-stimulated human PBMC was measured in a 1-day culture in the presence of compound, as previously described.

In a further data set the test system is OPM-2 MM cell. The description is as above. The class given is cell-based. The following applies: Homo sapiens. The procedure: as §1, §2
In a further data set the test system is U266 MM cell. The data set is described as above. Type of data set: cell-based. The following applies: Homo sapiens, U-266. Here is the method: as §1, §2
The subject of another data set is PBMC TNF-α production. Put plainly: Inhibition of TNF-α production by LPS-stimulated human PBMC (1-day culture). The following applies: 24 h. Type of data set: cell-based. Here is the method: as §1, §2
The mark [2] stands for this setting: plasma, plasma, radiochromatography, geometric mean (%CV).
The mark [3] stands for this setting: plasma, radiochromatography, geometric mean (%CV).

Where “and” joins values, the source holds several entries; their conditions need not be identical. Identical values can stand only once. Bounds are passed on as bounds.

T1 sequence (P33261 whole entry): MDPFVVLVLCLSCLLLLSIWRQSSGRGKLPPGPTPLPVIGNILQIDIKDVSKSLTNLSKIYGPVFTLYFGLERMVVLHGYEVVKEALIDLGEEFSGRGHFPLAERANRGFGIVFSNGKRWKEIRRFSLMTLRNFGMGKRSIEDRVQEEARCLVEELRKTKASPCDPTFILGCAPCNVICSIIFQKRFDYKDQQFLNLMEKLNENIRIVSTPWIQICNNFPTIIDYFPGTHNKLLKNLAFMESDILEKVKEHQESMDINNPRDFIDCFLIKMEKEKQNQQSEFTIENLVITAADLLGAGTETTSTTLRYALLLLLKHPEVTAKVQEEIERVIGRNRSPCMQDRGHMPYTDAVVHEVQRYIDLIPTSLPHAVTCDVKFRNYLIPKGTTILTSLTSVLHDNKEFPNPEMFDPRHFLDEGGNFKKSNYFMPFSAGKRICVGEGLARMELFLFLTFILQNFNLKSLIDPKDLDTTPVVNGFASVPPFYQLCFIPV

For the compound `Nc1cccc2c1C(=O)N(C1CCC(=O)NC1=O)C2=O` (racemic) [Pomalidomide, (RS)-4-amino-2-(2,6-dioxo-piperidin-3-yl)-isoindoline-1,3-dione], in data set [1], the “Plasma (% AUC relative to TRA)” value turned out to be 69.6%; the AUC/AUCTRA is 70% and 69.6%. In addition, the Tmax (usually the time at which the peak concentration occurs) in data set [1] (plasma, radiochromatography) turned out to be 2.5 h. Moreover, in data set [1] (setting [2]), the half-life was 9.4 h. Also, the AUC/AUCTRA entry in data set [1] (listed as pomalidomide) is “approximately 70%”. Also, in data set [1] (setting [3]), the “AUC0–24” value is recorded as 135 (33.4) ngEq*h/mL, the “AUC0−∞” value was 165 (43.2) ngEq*h/mL, the C max is recorded as 11.0 (22.5) ngEq/mL and the “t ½” value is 9.41 (25.0) h. Also, the “relative contribution of isozyme to the hepatic metabolism of pomalidomide” value at CYP2C19 (CYP2C19, scaled by relative abundance in human liver) is on record as 11%. Besides, the half-maximal inhibitory concentration (IC50) (commonly the point on the concentration scale where inhibition reaches its midpoint) in the data set with H929 MM cell was 35 nM. The same compound showed an IC50 with OPM-2 MM cell of 38 nM. Moreover, in the data set with U266 MM cell, the IC50 was determined as 28 nM. This compound also gave an IC50 with PBMC TNF-α production of 3.1 nM.
On to `Nc1c(O)ccc2c1C(=O)N(C1CCC(=O)NC1=O)C2=O` (centres unmarked) [Metabolite M17, 5-hydroxy pomalidomide], for which the “Plasma (% AUC relative to TRA)” value in data set [1] was 4.0%. Besides, the Tmax in data set [1] (plasma, radiochromatography) came to 2.5 h. Further, the half-life in data set [1] (setting [2]) is 11 h. Besides, the AUC/AUCTRA in data set [1] turned out to be 4.00%. The “AUC0–24” value in data set [1] (setting [3]) is given as 7.76 (24.8) ngEq*h/mL. In data set [1] (setting [3]), the “AUC0−∞” value is 11.5 (36.9) ngEq*h/mL. The C max in data set [1] (setting [3]) is recorded as 0.68 (33.3) ngEq/mL. In addition, the “rate of M17 formation” value on CYP2C19 (rCYP2C19, [14C]pomalidomide 1 μM, 1-h incubation, based on peak area ratios, estimated) was 0.0024 pmol/min/pmol P450. The IC50 was more than 1000 nM with H929 MM cell, more than 1000 nM in the data set on OPM-2 MM cell, more than 1000 nM in the data set with U266 MM cell and more than 10000 nM in the data set on PBMC TNF-α production.
